How the values were obtained:
[1] = system: fertilization in vitro; conditions: cited from earlier work
[2] = system: acrosin; conditions: cited from earlier work
[3] = system: boar acrosin; assay: SDS-PAGE / Western blot analysis of AAT-acrosin reaction mixture; format: binding
Procedure: Lanes 1 and 6, proacrosin (^~ 5 ug) autoactivated to acrosin; Lanes 2 and 7, alpha-1-antrypsin (^~ 2 ug); Lanes 3 and 8, alpha-1-antitrypsin (~2 ug)+activated proacrosin (~5 ug) in 0.1M Tris, pH 8.0; Lanes 4 and 9, alpha-1-antitrypsin (^~ 2 ug)+activated proacrosin (^~ 5 ug) in 0.1M Tris, 0.05M CaCl2, pH 8.0; Lane 5, molecular weight markers.
(§1) The nature of the reaction between AAT and acrosin was examined by electrophoresis under reducing and denaturing conditions and by Western blot analysis. AAT (2 μg) and activated boar proacrosin (5 μg) were incubated in a buffer containing 0.1M Tris, pH 8.0. Acrosin activity was inhibited 48% in the BAEE assay. […] Thus, all inhibition is accounted for by the formation of a covalent complex.

[4] = system: human acrosin; conditions: cited from earlier work
[5] = system: sperm and ova of hybrid mouse strain B6D2F1; assay: In vitro fertilization assay with mouse sperm and oocytes; format: cell-based
Procedure: The ability of AAT to inhibit fertilization in vitro was tested using sperm and ova obtained from the hybrid mouse strain B6D2F1. This strain was chosen because a 75% to 85% in vitro fertilization rate is routine and the female mice respond well to superovulatory drugs, producing an average of 30 normal oocytes per animal.
Oocytes were collected from 3- to 4-week-old female B6D2F1 mice. The animals received 5 international units of pregnant mare's serum gonadotropin to initiate follicular growth. After 48 hours, 5 international units of human chorionic gonadotropin were given to effect ovulation. Twelve hours after the last injection, oviducts were removed and oocytes were collected by puncture of the ampullary region, allowing the release of cumulus enclosed oocytes (cumulus clots) into 0.2 ml Fraser's medium (Fraser and Drury, Biol. Reprod. 13: 513-518, 1975) under paraffin oil. To randomize oocyte distribution, all cumulus clots were collected into one dish of medium and then placed into the fertilization medium. Oocytes were collected, on average, 15 minutes before sperm addition.
Sperm were collected from the cauda epididymus of 9- to 14-week-old male B6D2F1 mice of proven fertility. Each epididymus contained approximately 40 million sperm with 70% to 80% motility. […]
After the one-hour capacitation period, the sperm were counted by hemocytometer and […] sperm cells/ml were added to 0.2 ml Fraser's, medium (free of alpha-1-antitrypsin or containing AAT at the above concentrations) containing cumulus cell-enclosed oocytes. […]
The above experiments were designed to analyze the effective inhibitory concentration of alpha-1-antitrypsin and to detect differences in fertilization rate resulting from the capacitation/acrosome reaction state of the sperm. […] Data are expressed as percent oocytes with two pronuclei and a second polar body. […]

[6] = system: female mice; assay: In vivo inhibition of fertilization, intravaginal cream in female mice; parameters: species or system mouse; conditions: individual mice 1-5; cream 100 mg AAT/20 ml, 100 μl intravaginal prior to copulation; sacrificed 12 days after copulation
Procedure: For in vivo testing, a cream was prepared by dissolving 100 mg of recombinant AAT in 5 ml of phosphate-buffered saline (PBS; obtained from Sigma Chemical Co.). This solution was emulsified with 15 ml of K-Y Jelly (Johnson & Johnson) to give a final AAT concentration of 100 mg/20 ml.
The cream (100 μl) was administered intravaginal to female mice using an Eppendorf pipette prior to copulation. Control females were untreated or received a control cream consisting of 100 mg bovine serum albumin in 5 ml of PBS plus 15 ml of K-Y Jelly. Copulation was confirmed in two of five BSA controls and four of five experimental mice. Mice were sacrificed 12 days after copulation and the number of fetuses was noted. Results, shown in Table 1, indicate that alpha-1-antitrypsin is an effective contraceptive agent.

[7] = system: boar acrosin; assay: Spectrophotometric acrosin assay with substrate BAEE; format: biochemical
Procedure: The effects of alpha-1-antitrypsin on purified acrosin were measured spectrophotometrically using the acrosin substrate N-α-benzoyl-L-arginine ethyl ester (BAEE) essentially as described by Polakoski and Zaneveld (Methods in Enzymology 45 (part B): 325, 1976). Boar acrosin was combined with AAT in 0.025M Tris, pH 7.0, containing BAEE. A control sample lacked AAT. The absorbance of the reaction mixture was monitored at 253 nm.
as §1

[8] = system: boar acrosin; conditions: cited from earlier work

Which results are given for soybean trypsin inhibitor?
effect on fertilization in vitro [1]: prevent fertilization in vitro; effect on acrosin activity [2]: block acrosin activity

With alpha-1-antitrypsin [AAT] as the substance, how does the “complex formation between inhibitor and enzyme (Western blot)” value ([3]; AAT 2 μg + activated boar proacrosin 5 μg, 0.1M Tris, pH 8.0, reducing and denaturing 12% SDS-PAGE) read?
The value was “formation of a high molecular weight complex”.

And the “complex formation between inhibitor and enzyme (Western blot)” value ([3]; same analysis in the presence of 0.05M CaCl2)?
Its value is “essentially identical results”.

What about the “inhibition of human acrosin in vitro” value [4] of the same substance?
The value was “inhibit”.

What about the blocking of fertilization ([5]; AAT in both capacitation and fertilization media, all concentrations except 0.01 mM (0.05-1 mM), FIG. 4) of the same substance?
Its blocking of fertilization is “effective in blocking fertilization”.

And the “concentrations of AAT effective in blocking fertilization” value ([5]; capacitation in AAT-containing medium, fertilization in control medium, FIG. 3)?
The value was “greater than 0.2 mM”.

And the “decrease of fertilization rate (percent oocytes with two pronuclei and a second polar body)” value ([5]; sperm capacitated in control medium, fertilization in AAT-containing medium, all concentrations tested (0.01-1 mM), control fertilization rate 77%, FIG. 2)?
Its value is “about 50%”.

What about the “Number of Fetuses” value [6] of the same substance?
Its value is 0.

And the “Acrosin activity inhibited in the BAEE assay” value ([7]; AAT 2 μg + activated boar proacrosin 5 μg, 0.1M Tris, pH 8.0)?
Its value is 48%.

What about the “inhibition of acrosin in the test system (BAEE hydrolysis, absorbance at 253 nm)” value ([7]; boar acrosin combined with AAT in 0.025M Tris, pH 7.0, containing BAEE, amount of AAT tested) of the same substance?
Its value is “complete inhibition”.

What about the “inhibition of boar acrosin in vitro” value [8] of the same substance?
Its value is “inhibit”.

— US5545615A, “A method of inhibiting fertilization by alpha-1-antitrypsin or antithrombin III” (ZymoGenetics, Inc., priority 1994, dated 1996)
